We go through 27 compounds from PubChem BioAssay (NCI).

Values joined by “and” are separate entries in the source; they are usually repeats but may differ in a detail not shown here. Equal entries are not always repeated.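 Results reflect a 48-hour exposure of cells in 96-well plates to compound at five concentrations. Here, GI50 denotes the concentration required for 50% inhibition of growth. TGI marks complete inhibition of growth.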

Test in all cases: growth of human tumour cells (NCI), 48 h
Assay [1] concerns 786-0 renal.
In assay [2] the test system is HCT-15 colon.
The test system of assay [3] is HL-60(TB) leukemia.
Assay [4] relates to IGROV1 ovarian.
The test system of assay [5] is OVCAR-8 ovarian.
For assay [6], the system named is SF-295 CNS.
Assay [7] has as its system SR leukemia.
For assay [8], the system named is TK-10 renal.
Assay [9] has as its system DU-145 prostate.

With `COc1ccc(Nc2nc3ccc(C(F)(F)F)cc3nc2-c2ccccc2)cc1OC`, the TGI in [1] was 72.7 µM; in assay [2] it was more than 100 µM; in assay [3] it was more than 100 µM; in assay [4], more than 100 µM; in [5], more than 100 µM; in assay [6], 44.9 µM. This compound had a TGI in assay [7] of more than 100 µM.
For `COc1ccc(OC)c(/C(C)=N/NC(N)=S)c1`, the TGI in [1], in assay [2], in assay [3], in assay [4], in [5] and in [6] was more than 100 µM each time. The TGI in assay [7] and in [8] was more than 100 µM in each case.
Turning to `COc1ccc2c(c1)N1CCc3cc(OC)c(OC)cc3C1C2` (configuration not stated), the TGI in [1], in assay [3], in assay [4], in [5], in [6] and in [7] was more than 100 µM each time. In addition, the TGI in assay [8] is more than 100 µM.
As for `Cc1cc2c(ccc3c(C)cc(=O)oc32)o1`, the TGI in assay [1], in assay [2], in assay [4], in [5], in assay [6] and in assay [7] was more than 100 µM in each case. In assay [8], this compound gave a TGI of more than 100 µM.
For the compound `CN(C)CC(C)(C)C(=O)/C=C/c1ccc(/C=C/C(=O)C(C)(C)CN(C)C)cc1`, the TGI in [1] stood at 3.08 µM; in [2] it was 5.49 µM; in assay [3] it was 4.17 µM; in [4], 3.33 µM; in assay [5], 6.71 µM; in [6], 3.84 µM. Moreover, the figures for the TGI in assay [7] and in assay [8] were 5.45 µM and 3.03 µM, respectively.
Turning to `COCCCNC(=O)C1C(=O)N(CCCOC)C(=O)/C1=N\N` (configuration not stated), the TGI in assay [1], in [2], in assay [3], in [5], in [6] and in assay [8] was more than 100 µM in each case.
Turning to `C[N-]c1nnnn1C.[Au+].c1ccc([PH+](c2ccccc2)c2ccccc2)cc1`, the GI50 in assay [1] is 1.74 µM; in assay [2], 2.17 µM; in assay [3] it was 0.189 µM; in assay [4], 2.76 µM; in assay [5] it was 3.18 µM; in assay [6], 3.47 µM. In addition, the GI50 is 1.11 µM in assay [7] and 2.19 µM in assay [8]. The TGI in assay [1] came to 3.12 µM; in assay [2], 5.72 µM; in assay [3], 0.567 µM; in [4] it was 9.99 µM; in assay [5], 14.2 µM; in assay [6], 12.2 µM. Further, the TGI is 4.12 µM in assay [7] and 4.42 µM in assay [8].
As for `[Cl-].[O-]/N=C(\c1ccccc1)c1ccccn1.[O-]/N=C(\c1ccccc1)c1ccccn1.[O-]/N=C(\c1ccccc1)c1ccccn1.[Sm+3]`, the GI50 in assay [1] is 24.1 µM; in assay [2] it was 32.4 µM; in [3], 20.1 µM; in assay [4] it was 27.8 µM; in assay [5], 29.8 µM; in assay [6], 18.7 µM. In addition, the GI50 in assay [8] was 24.5 µM. Moreover, the TGI in assay [1] was 65.5 µM; in assay [2] it was more than 100 µM; in assay [3], 62.1 µM; in [4], 79.6 µM; in [5] it was more than 100 µM; in [6], 79.9 µM. For the same compound, the TGI in [8] is more than 100 µM.
In the case of `Cc1[nH]c2ccccc2c1C(=O)CC1(O)C(=O)Nc2ccccc21` (configuration not stated), the TGI in assay [1], in [2], in [3], in [4], in assay [6] and in [7] was more than 100 µM each time. The compound further gave a TGI in assay [8] of more than 100 µM.
As to `C=C(c1ccc2nc(NC(=O)OC)[nH]c2c1)c1cccs1`, the TGI in [1] was more than 100 µM; in assay [9], more than 100 µM; in assay [2], 2.24 µM; in [3], more than 32.7 µM; in assay [4] it was more than 100 µM; in assay [5], more than 36.4 µM. The TGI was 0.934 µM in assay [6], 1.11 µM in assay [7] and more than 100 µM in assay [8].
For `Cc1ccc(SC(CCC(Sc2ccc(C)cc2)Sc2ccc(C)cc2)Sc2ccc(C)cc2)cc1`, the TGI in [1], in [2], in assay [3], in assay [4], in [5] and in assay [6] was more than 100 µM throughout. In addition, the TGI in assay [7] and in assay [8] was more than 100 µM throughout.
Consider `C=C(COC(C)=O)CC(OC(C)=O)c1ccccc1` (configuration not stated), for which the TGI in assay [1], in assay [2], in [3], in assay [4], in assay [5] and in [6] was more than 100 µM each time. The same compound yielded a TGI in [8] of more than 100 µM.
Turning to `CCc1cccc(C)c1NC(=O)c1sc2nc3c(cc2c1N)CCCCC3`, the GI50 was 4.58 µM in assay [1]; 3.28 µM in assay [9]; 3.17 µM in [2]; 2.85 µM in assay [3]; 5.13 µM in assay [4]; 3.72 µM in [5]. In addition, the GI50 in assay [6] is 3.05 µM; in [7] it was 2.27 µM; in assay [8], 13.4 µM. Besides, the TGI in assay [1] was more than 100 µM; in [9] it was more than 100 µM; in [2], more than 100 µM; in [3], 11.8 µM; in assay [4], more than 100 µM; in assay [5], more than 100 µM. The TGI in assay [6] was more than 100 µM; in [7] it was 54 µM; in [8], more than 100 µM.
As for `CC(C)CC(NC(=O)c1cccc(O)c1O)C(=O)NCc1cc(CNC(=O)C(CC(C)C)NC(=O)c2cccc(O)c2O)cc(CNC(=O)C(CC(C)C)NC(=O)c2cccc(O)c2O)c1` (configuration not stated), the TGI was more than 100 µM in assay [1]; more than 100 µM in assay [2]; 19.2 µM in assay [3]; 27.1 µM in assay [4]; more than 100 µM in assay [5]; 38.6 µM in [6]. The TGI in assay [7] was 32.2 µM; in assay [8] it was more than 100 µM.
For `COc1ccc(S(=O)(=O)Nc2ccccc2C(=O)O)cc1`, the TGI in assay [1], in assay [2], in assay [3], in assay [4], in assay [5] and in assay [6] was more than 100 µM in each case. This compound also returned a TGI in assay [8] of more than 100 µM.
With `O=C1c2ccccc2C(Br)(Br)c2ccccc21`, the TGI was more than 31.6 µM in assay [1]; more than 31.6 µM in [2]; more than 31.6 µM in assay [3]; more than 31.6 µM in assay [4]; more than 100 µM in [5]; more than 31.6 µM in assay [6]. The TGI in assay [7] was more than 31.6 µM; in assay [8], more than 100 µM.
With `COc1cccc(-c2cc(=O)c3cc(OC)ccc3[nH]2)c1`, the GI50 was 0.15 µM in [1]; 0.186 µM in assay [9]; 0.0485 µM in [2]; 0.0194 µM in [3]; 0.25 µM in assay [4]; 0.79 µM in assay [5]. Moreover, the GI50 in assay [6] is 0.292 µM. Moreover, the TGI in [1] was 65.3 µM; in assay [3], 0.405 µM and 0.0536 µM; in [4], more than 100 µM; in assay [7], 0.664 µM; in assay [8], 84.9 µM.
Regarding `CC1CCC2(CC1)NN=c1s/c(=C\c3ccc(O)cc3)c(=O)n1N2` (configuration not stated), the TGI in assay [1], in assay [3], in assay [4], in assay [5], in [6] and in [8] was more than 100 µM throughout.
On to `CC(=O)[O][Ga]([Cl])[O]C(C)=O`, for which the GI50 in [1], in assay [3], in assay [4], in assay [5], in assay [6] and in assay [7] was more than 100 µM in each case. Further, the GI50 in assay [8] is more than 100 µM. For the same compound, the TGI in [1], in assay [3], in assay [4], in assay [5], in assay [6] and in assay [7] was more than 100 µM each time. The same compound displayed a TGI in assay [8] of more than 100 µM.
Regarding `c1cc(N(CCn2cccn2)CCn2cccn2)cc(N(CCn2cccn2)CCn2cccn2)c1`, the TGI in assay [1], in [2], in assay [3], in assay [5], in assay [6] and in assay [7] was more than 100 µM each time. The same compound yielded a TGI in [8] of more than 100 µM.
For the compound `COc1ccc2c(CN3CCCCC3CO)cc3cc(OC)c(OC)cc3c2c1` (configuration not stated), the TGI in [1] was 17.3 µM; in assay [2] it was 20.8 µM; in [3], 12.5 µM; in assay [4] it was 61.1 µM; in assay [5], 19.9 µM; in assay [6] it was 13.6 µM. For the same compound, the TGI in [7] worked out at 22.2 µM; in assay [8], 27.5 µM.
For `CCC[CH2][Sn]1([CH2]CCC)[O]CC(Cc2ccccc2)[O]1` (configuration not stated), the GI50 in assay [1] is 1.86 µM; in assay [2] it was 2.24 µM; in assay [3], 0.51 µM; in assay [4] it was 3.8 µM; in assay [5], 2.61 µM; in [6] it was 2.1 µM. The GI50 in [7] was 1.35 µM; in assay [8], 2.64 µM. Moreover, the TGI came out at 3.73 µM in assay [1]; 5.82 µM in assay [2]; 2.31 µM in [3]; 13.8 µM in assay [4]; 6.59 µM in assay [5]; 6.3 µM in [6]. Moreover, the TGI stood at 4.84 µM in assay [7] and 7.27 µM in [8].
Regarding `CCCCCC(=O)C(C)C1=Nc2nnc(CCCCCCCc3nnc4n3C(=O)C(C(C)C(=O)CCCCC)=N4)n2C1=O` (configuration not stated), the TGI in [1], in assay [2], in assay [3], in assay [4], in [5] and in [6] was more than 100 µM in each case. Further, the TGI in assay [7] and in [8] was more than 100 µM throughout.
In the case of `CCOC(=O)C1N(S(=O)(=O)c2ccc(C)cc2)CCC12c1ccccc1N(C(C)=O)C2c1ccc(OC)c(OC)c1` (configuration not stated), the TGI in [1], in [3], in assay [4], in assay [5], in [6] and in assay [8] was more than 100 µM in each case.
Consider `COC(=O)/C=C1/CCC(C(=O)OC)N1` (configuration not stated), for which the TGI in [1], in assay [2], in assay [3], in assay [4], in [5] and in assay [6] was more than 100 µM each time. Moreover, the TGI in assay [7] and in [8] was more than 100 µM in each case.
As for `Cc1ccc(NC(=O)C2C(=O)N(c3ccc(C)cc3)C(=O)/C2=N\NC(N)=S)cc1` (configuration not stated), the TGI in [1], in assay [2], in assay [4], in assay [5], in assay [6] and in assay [8] was more than 100 µM in each case.
On to `CC(=O)[CH-]C(C)=O.CC(=O)[CH-]C(C)=O.[CH2-]CCC.[CH2-]CCC.[Sn+4]`, for which the GI50 was 0.351 µM in [1]; 0.68 µM in assay [2]; 0.347 µM in [3]; 1.23 µM in assay [4]; 0.788 µM in [5]; 1.45 µM in assay [6]. For the same compound, the GI50 is 0.382 µM in assay [7] and 0.423 µM in assay [8]. Moreover, the TGI in assay [1] turned out to be 1.56 µM; in assay [2], 1.99 µM; in assay [3], 2.73 µM; in assay [4], 2.66 µM; in assay [5] it was 2.05 µM; in assay [6] it was 2.8 µM. The results for the TGI in assay [7] and in assay [8] were more than 100 µM and 1.36 µM, respectively.
